Reference: US12544365B2, “Pharmaceutical combination of an EP4 antagonist and immune checkpoint inhibitors for the treatment of tumours” (ROTTAPHARM BIOTECH S.R.L., priority 2019, dated 2026)

Assays:
[1] = test system: CT26 cancer cell tumours; assay: CT26 syngeneic model of mouse colorectal cancer in Balb/c mice; assay type: in vivo; conditions: compounds 30 mg/kg oral daily day 7-23; anti PD-1 i.p. 20 mg/kg day 8, 10 mg/kg days 13, 19, 22
Experimental: Male Balb/c mice 4-6 weeks old were housed five per cage in a temperature and humidity controlled room with a 12h/12h light/dark cycle. Throughout the experiment the animals had free access to food and water. The Balb/c mice were randomly divided into 6 groups (n=15 in each group): vehicle, Compound 1, Compound 2, anti PD-1, Compound 1+anti PD-1, Compound 2+anti PD-1 group.
CT26 cells were purchased from ATCC and cultured in Dulbecco's Modified Eagle's Medium (DMEM; ThermoFisher Scientific) supplemented with 10% fetal bovine serum (FBS; Sigma Aldrich) at 37° C. in an incubator with 5% CO2. Cells were sub-cultured twice a week until the number of cells needed for inoculation was obtained.
On the day of transplantation (day 0) logarithmic growing phase cells were harvested, diluted in PBS and 10^6 cells in 0.2 ml of PBS were subcutaneously inoculated into the lateral abdominal region of each mouse using a 26G syringe.
On day 7 after inoculation the mice were randomized into the 6 treatment groups each of 15 animals receiving respectively vehicle, Compound 1, Compound 2, anti PD-1 and the combination therapies. […]
Tumour sizes (mm^3) were evaluated twice a week by using a digital caliper. The tumour volumes were calculated measuring the tumour lengths along the major and minor axis and using the formula: Volume=[[…]]/2.

[2] = test system: Th-17 cells differentiation of human CD4+ naïve T cells; assay: Ex vivo human Th-17 cells differentiation (flow cytometry); assay type: cell-based; conditions: 0.03 μM PGE2, 48 hours
Experimental: Peripheral blood mononuclear cells (PBMC) were isolated from healthy volunteers using density gradient centrifugation and CD4+naïve T cells were enriched from PBMCs using human naïve CD4+ T cell isolation kit (Miltenyi Biotech). Isolated CD4+ T cells were maintained in RPMI medium and differentiated toward Th-17 cells by stimulation with IL-12 and IL-2, both 5 ng/ml in combination with 1.5 ng/ml of antibodies anti CD3 and anti CD28 and 0.03 μM PGE2+Compound 1 at concentration of 0.01-0.03-0.1-0.3 μM for 48 hours.
At the end of incubation time cells were stained with fluorescence-conjugated antibodies specific for CD4, CCR6, CD45, CD25 and IL-17 (all from BD Bioscience). Finally, the number of Th-17 cells was determined by flow cytometry and the events were measured by Fluorescence Activated Cell Sorter (FACS; BD Bioscience) and analyzed with dedicated software.

[3] = test system: PGE2 effect on TNF-α release in rat whole blood culture; assay: In vitro TNF-α release induced by LPS and modulated by PGE2, rat whole blood culture; assay type: cell-based; conditions: 0.1 μg/ml LPS + fixed PGE2 concentration giving about 80% inhibition, 4 hours, read-out: IC50, reversal of PGE2 effect on TNF-α release
Experimental: Male Wistar Han rats (250-300 g b.w., Charles River, Italy) were housed six per cage in a temperature-controlled room, set to maintain temperature within the range of 20° C. #2° C. and relative humidity within the range of 55%±10 and with a 12-h/12-h light/dark cycle. Throughout the study animals had free access to standard laboratory chow (Teklad rodent diet 2018, Harlan Laboratories, S. Pietro al Natisone, UD, Italy) and drinking water. Care and handling of the animals were in accordance with the guidelines of the Local Government and the regulations of the European Community. Authorization for experimental procedures was granted by the Italian Ministry of Health. The day of the experiments animals were anaesthetized with 2.5-3% isoflurane in O2 inside an induction chamber and blood was drawn from the abdominal aorta. Whole blood samples were collected in tubes containing 0.1-0.2U/ml heparin. […]
In samples representing basal release of the cytokine, LPS was substituted by the same volume of sterile PBS. […] The levels of TNF-α release in rat whole blood culture were evaluated using the Rat TNFalpha ELISA kit (Diaclone, France). Compared to the reference standard curve, TNF-α levels in samples were expressed as concentration (pg/ml).

O=C([O-])c1ccc(C2(NC(=O)[C@H]3CC4(CCN3Cc3ccc(C(F)(F)F)cc3)CC4)CC2)cc1.[Na+] [Compound 1, sodium (R)-4-(1-(6-(4-(trifluoromethyl)benzyl)-6-azaspiro[2.5]octane-5-carboxamido)cyclopropyl)benzoate]
effect on tumour growth (tumour volume) [1]: mild inhibitory effect on cancer growth starting at the second week of treatment | concentration at which plateau of maximal effect on Th-17 cells is reached [2]: above 0.1 μM | number of naïve Th-17 cells ([2]; 0.01-0.3 μM): marked decrease | IC50 [3]: 2300 nM
